Reference: ChEMBL document CHEMBL4739717, “Methods of treating cartilage disorders through inhibition of clk and dyrk” (2020)
Active and inactive are the calls of the source. The rule behind the calls is not given here.

Key:
[1] = molecular target: Dual specificity tyrosine-phosphorylation-regulated kinase 1A (Homo sapiens, UniProt Q13627); assay: Inhibition of recombinant DYRK1A (unknown origin) using Ser/Thr 18 peptide as substrate incubated for 1 hr in presence of ATP by FRET assay
[2] = molecular target: Dual specificity protein kinase CLK2 (Homo sapiens, UniProt P49760); assay: Inhibition of recombinant CLK2 (unknown origin) using Ser/Thr 6 peptide as substrate incubated for 1 hr in presence of ATP by FRET assay
Dual specificity protein kinase CLK2, sequence (P49760 whole entry): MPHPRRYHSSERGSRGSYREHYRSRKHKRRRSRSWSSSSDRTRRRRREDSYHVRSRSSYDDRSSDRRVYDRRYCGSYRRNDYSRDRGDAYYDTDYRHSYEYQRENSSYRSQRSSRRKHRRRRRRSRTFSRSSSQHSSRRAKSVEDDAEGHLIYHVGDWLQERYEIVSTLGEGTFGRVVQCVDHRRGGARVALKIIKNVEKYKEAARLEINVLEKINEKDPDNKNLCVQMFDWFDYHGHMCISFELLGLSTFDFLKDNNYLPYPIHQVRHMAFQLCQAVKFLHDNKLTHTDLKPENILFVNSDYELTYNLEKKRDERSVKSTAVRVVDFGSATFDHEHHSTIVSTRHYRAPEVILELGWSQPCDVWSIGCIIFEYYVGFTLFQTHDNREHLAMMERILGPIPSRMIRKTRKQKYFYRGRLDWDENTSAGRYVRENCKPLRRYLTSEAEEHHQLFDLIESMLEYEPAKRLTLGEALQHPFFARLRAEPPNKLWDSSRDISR

[3] = Induction of chondrogenesis in human MSC assessed as maximum activity at 5000 nM incubated for 6 days by rhodamine B and Nile red staining based imaging analysis relative to control; type: functional; details: BMMSC, 144 h, time 6 day
[4] = molecular target: Dual specificity protein kinase CLK3 (Homo sapiens, UniProt P49761); assay: Inhibition of recombinant CLK3 (unknown origin) using Ser/Thr 18 peptide as substrate incubated for 1 hr in presence of ATP by FRET assay
Dual specificity protein kinase CLK3, sequence (P49761 whole entry): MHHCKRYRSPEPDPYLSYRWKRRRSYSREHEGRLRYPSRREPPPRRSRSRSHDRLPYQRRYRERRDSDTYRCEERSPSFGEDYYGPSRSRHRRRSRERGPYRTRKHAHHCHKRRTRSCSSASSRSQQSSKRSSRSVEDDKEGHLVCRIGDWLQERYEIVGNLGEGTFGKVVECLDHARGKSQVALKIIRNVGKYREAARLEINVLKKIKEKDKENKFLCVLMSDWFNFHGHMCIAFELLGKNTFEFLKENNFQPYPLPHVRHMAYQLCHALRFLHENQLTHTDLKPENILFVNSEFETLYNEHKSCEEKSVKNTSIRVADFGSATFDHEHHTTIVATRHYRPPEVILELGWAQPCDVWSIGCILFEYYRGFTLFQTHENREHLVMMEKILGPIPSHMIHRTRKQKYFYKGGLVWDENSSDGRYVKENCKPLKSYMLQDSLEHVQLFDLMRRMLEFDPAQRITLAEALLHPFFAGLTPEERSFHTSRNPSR

[5] = Effect on Wnt signaling pathway in human SW480 cells harbouring TCF/LEF luciferase reporter gene and SP5-Luc reporter gene incubated for 36 to 48 hrs by luminescence assay; type: cell-based
[6] = Induction of chondrogenesis in human MSC assessed as incubated for 6 days by rhodamine B and Nile red staining based imaging analysis; type: functional; details: bmmsc
[7] = Induction of chondrogenesis in human MSC assessed as maximum activity at 185.19 nM incubated for 6 days by rhodamine B and Nile red staining based imaging analysis relative to control; type: functional; details: BMMSC, 144 h, time 6 day
[8] = Induction of chondrogenesis in human MSC assessed as maximum activity at 900 nM incubated for 6 days by rhodamine B and Nile red staining based imaging analysis relative to control; type: functional; details: BMMSC, 144 h, time 6 day
[9] = test system: Chondrocyte; assay: Inhibition of IL1-beta induced MMP-13 expression levels in human chondrocytes assessed as MMP-13 levels incubated for 2hrs followed by IL1-beta stimulation and measured after 24 hrs by qRT-PCR analysis; type: functional; details: time 26.0 hrs
[10] = test system: Chondrocyte; assay: Inhibition of IL1-beta induced MMP3 expression levels in human chondrocytes assessed as MMP3 levels incubated for 2hrs followed by IL1-beta stimulation and measured after 24 hrs by qRT-PCR analysis; type: functional; details: time 26.0 hrs
[11] = Inhibition of IL1-beta induced MMP3 expression levels in human chondrocytes assessed as MMP3 levels incubated for 2hrs followed by IL1-beta stimulation and measured after overnight incubation by LANCE assay; type: functional, cell-based; details: Chondrocyte
[12] = Induction of chondrogenesis in human MSC assessed as maximum activity at 61.73 nM incubated for 6 days by rhodamine B and Nile red staining based imaging analysis relative to control; type: functional; details: BMMSC, 144 h, time 6 day
[13] = Induction of chondrogenesis in human MSC assessed as maximum activity at 100 nM incubated for 6 days by rhodamine B and Nile red staining based imaging analysis relative to control; type: functional; details: BMMSC, 144 h, time 6 day
[14] = test system: Chondrocyte; assay: Inhibition of IL1-beta induced MMP1 expression levels in human chondrocytes assessed as MMP1 levels incubated for 2hrs followed by IL1-beta stimulation and measured after 24 hrs by qRT-PCR analysis; type: functional; details: time 26.0 hrs
[15] = Induction of chondrogenesis in human MSC assessed as maximum activity at 30 nM incubated for 6 days by rhodamine B and Nile red staining based imaging analysis relative to control; type: functional; details: BMMSC, 144 h, time 6 day
[16] = Induction of chondrogenesis in human MSC assessed as maximum activity at 1700 nM incubated for 6 days by rhodamine B and Nile red staining based imaging analysis relative to control; type: functional; details: BMMSC, 144 h, time 6 day
[17] = Induction of chondrogenesis in human MSC assessed as maximum activity at 2700 nM incubated for 6 days by rhodamine B and Nile red staining based imaging analysis relative to control; type: functional; details: BMMSC, 144 h, time 6 day

Compound	EC50 [1] [nM]	EC50 [5] [nM]	EC50 [6] [nM]	Activity [10]	EC50 [11] [nM]	Activity [14]	further results
CN1CCCCN(C)c2nccc3[nH]c(nc23)-c2c[nH]c3ccc(cc23)-c2cncc(c2)C1	2	577	5000				EC50 [2]: 2 nM; Emax at 5 µM [3]: 231%; EC50 [4]: 12 nM
Oc1cncc(-c2ccc3[nH]nc(-c4nc5c(-c6cccc(F)c6)nccc5[nH]4)c3n2)c1	24	460	6.86				Emax at 0.18519 µM [7]: 56.7%
CCCC(=O)Nc1cncc(-c2ccc3[nH]nc(-c4nc5c(-c6ccncc6)cncc5[nH]4)c3n2)c1	13	999					Emax at 0.18519 µM [7]: 31%
Fc1ccc(-c2nnc(-c3n[nH]cc3/C=C/c3cccnc3)o2)cc1	15	1510		inactive	3000		Emax at 0.9 µM [8]: 23.4%; Activity [9]: inactive
CCNCc1cncc(-c2ccc3[nH]nc(-c4nc5c(-c6cc(F)cc(NCCN(C)C)c6)nccc5[nH]4)c3n2)c1	12	> 10000					Emax at 0.06173 µM [12]: 35.6%
Cc1n[nH]c2ccc(-c3cncc(OC[C@H](N)Cc4ccccc4)n3)cc12	4	256	30	inactive		inactive	Emax at 0.1 µM [13]: 52.1%; Activity [9]: inactive
COc1cncc(-c2ccc3[nH]nc(-c4nc5c(-c6cccc(F)c6)cncc5[nH]4)c3n2)c1	40		20.6				Emax at 0.06173 µM [12]: 55.5%
COc1cncc(C(=O)Nc2c[nH]nc2C(=O)Nc2ccc(N3CCC(F)(F)C3)nc2)c1	14	5.7	300		2.2		Emax at 0.9 µM [8]: 124%; EC50 [4]: > 10000 nM
Cn1cc(-c2cc3c(C(=O)Nc4ccc(CN5CCCC5)cc4)n[nH]c3cc2F)cn1	1	242		inactive	3000	inactive	Emax at 0.1 µM [13]: 27.4%
CC(C)C(=O)Nc1cncc(-c2ccc3[nH]nc(-c4nc5c(-c6cccnc6)ccnc5[nH]4)c3n2)c1	30	> 10000					Emax at 0.06173 µM [12]: 26.1%
Cc1n[nH]c2cc(F)c(-c3cncc(O[C@H]4CCNC[C@@H]4F)n3)cc12	6	630				inactive	EC50 [2]: 1 nM; Activity [9]: inactive; EC50 [4]: 1300 nM
COc1cncc(-c2ccc3[nH]nc(-c4nc5c(-c6cccc(F)c6)ccnc5[nH]4)c3n2)c1	51						Emax at 0.06173 µM [12]: 47%
CN(C)C(=O)Nc1cncc(-c2cnc3[nH]nc(-c4nc5c(-c6cccc(F)c6)cncc5[nH]4)c3c2)c1	4	10			40.6		Emax at 0.9 µM [8]: 68.1%
CCC(=O)Nc1cncc(-c2ccc3[nH]nc(-c4nc5c(-c6cccc(F)c6)ccnc5[nH]4)c3n2)c1	36	> 10000					Emax at 0.06173 µM [12]: 29.3%
Cc1n[nH]c2ccc(-c3cncc(N[C@H]4CCNC[C@@H]4F)n3)cc12	1	84.3		inactive		inactive	EC50 [2]: 1 nM; Activity [9]: inactive; Emax at 0.03 µM [15]: 25.6%; EC50 [4]: 424 nM
O=C(Nc1cccnc1)c1n[nH]c2ccc(-c3cncc(CN4CC5CC(C4)O5)c3)cc12		67	900		3000		Emax at 0.9 µM [8]: 121%
O=C1CCc2cccc(c2)-c2cncc(c2)NC(=O)c2n[nH]c3ccc(cc23)-c2cncc(c2)CN1		> 10000	30	inactive	10	inactive	Activity [9]: inactive; Emax at 0.03 µM [15]: 69.4%
c1cc2cc(c1)-c1cncc3[nH]c(nc13)-c1n[nH]c3ccc(cc13)-c1cncc(c1)CNC2		41.8	200				Emax at 1.7 µM [16]: 588%
Fc1cccc(-c2cccc3[nH]c(-c4n[nH]cc4/C=C/c4cncc(CN5CCCC5)c4)nc23)c1	20	82.1	2700	inactive	1.4	inactive	Emax at 2.7 µM [17]: 81.7%
